# PubChem BioAssay AID1259411 (Chemical Carcinogenesis Research Information System (CCRIS), 2018)
# Active and inactive are the calls of the source. How the calls were made is not given here.
# Tested on: rodent carcinogenicity bioassays, tumor incidence
# Test: CCRIS carcinogenicity studies
# Summary of the method: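 NCI-built, expert-reviewed records of carcinogenicity and related test outcomes (mutagenicity, tumor promotion/inhibition) compiled from published and report sources, historical span 1985-2011, not updated.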
structure (smiles),measurement,setting,value
C=CN1CCCC1=O,carcinogen call,"Species: RAT, Strain/Sex: SPRAGUE-DAWLEY/ MALE, Route: INHALATION, Dose: 0, 5, 10, 20 PPM 6 HR/D 5D/WK FOR 24 MO (STUDY DURATION: 24 MO), Dose: 0, 5, 10, 20 PPM 6 HR/D 5D/WK FOR 24 MO (STUDY DURATION: 24 MO), Tumor Site: Type of Lesion: LARYNX: SQUAMOUS CELL CARCINOMA, LIVER: HEPATOCELLULAR CARCINOMA, NASAL CAVITY: ADENOCARCINOMA, ADENOMA, Tumor Site: Type of Lesion: LARYNX: SQUAMOUS CELL CARCINOMA, LIVER: HEPATOCELLULAR CARCINOMA, NASAL CAVITY: ADENOCARCINOMA, ADENOMA",active; positive
same,carcinogen call,"Species: RAT, Strain/Sex: SPRAGUE-DAWLEY/FEMALE, Route: INHALATION, Dose: 0, 5, 10, 20 PPM 6 HR/D 5 D/WK FOR 24 MO (STUDY DURATION: 24 MO), Dose: 0, 5, 10, 20 PPM 6 HR/D 5 D/WK FOR 24 MO (STUDY DURATION: 24 MO), Tumor Site: Type of Lesion: LARYNX: SQUAMOUS CELL CARCINOMA, LIVER: HEPATOCELLULAR CARCINOMA, NASAL CAVITY: ADENOCARCINOMA, ADENOMA, Tumor Site: Type of Lesion: LARYNX: SQUAMOUS CELL CARCINOMA, LIVER: HEPATOCELLULAR CARCINOMA, NASAL CAVITY: ADENOCARCINOMA, ADENOMA",active; positive
Cc1cc(=O)n(-c2ccccc2)n1C,carcinogen call,"Species: RAT, Strain/Sex: SPRAGUE-DAWLEY/MALE, Route: ORAL, Dose: 0, 0.535% IN DIET FOR 117 WK, Tumor Site: Type of Lesion: KIDNEY",active; positive
O=C(O)c1ccccc1O,carcinogen call,"Species: Mouse, Strain/Sex: SKH-1/Female (18/Group), Route: Dermal, Dose: 0, 2, 4% administered as topical cream (pH 4) , 5 d/wk, 40 wk, animals held an additional 12 wk for study duration of 1, Tumor Site: Type of Lesion: Skin: Carcinoma in situ, squamous cell carcinoma, basal cell carcinoma",inactive; negative. when synthetic solar light (ssl) at 0.3 and 0.6 the minimal erythema d
same,carcinogen call,"Species: Mouse, Strain/Sex: SKH-1/Male (18/Group), Route: Dermal, Dose: 0, 2, 4% administered as topical cream (pH 4) , 5 d/wk, 40 wk, animals held an additional 12 wk for study duration of 1, Tumor Site: Type of Lesion: Skin: Carcinoma in situ, squamous cell carcinoma, basal cell carcinoma",inactive; negative. when synthetic solar light (ssl) at 0.3 and 0.6 the minimal erythema d
O=C(O)[C@@H]1[C@H](C(=O)O)[C@H]2CC[C@@H]1O2,carcinogen call,"Species: Mouse, Strain/Sex: Crl, CD-1(ICR)BR/Male and female (60/Group), Route: Oral, Dose: 0, 750, 1500 ppm of endothal disodium, purity 19-23.1%, in diet for at least 78 wk, study duration 18 mo, Dose: 0, 750, 1500 ppm of endothal disodium, purity 19-23.1%, in diet for at least 78 wk, study duration 18 mo, Tumor Site: Type of Lesion: Duodenum and jejunum: increased incidence of tumors in high dose group",active; positive (results not described separately for each sex)
same,carcinogen call,"Species: Rat, Strain/Sex: Cr, CD(SD)BR/Female (62/group), Route: Oral, Dose: Nominal concentrations of 0, 300, 900, 1800 ppm in diet for 104 wk, study duration 104 wk (actual concentration about 18, 300, 900, Tumor Site: Type of Lesion: Uterus: endometrial stromal tumors (0, 0, 4/60, 5/59)",active; positive (ca department of pesticide regulation evaluator described as a possibl
same,carcinogen call,"Species: Rat, Strain/Sex: Cr, CD(SD)BR/Male (62/group), Route: Oral, Dose: Nominal concentrations of 0, 300, 900, 1800 ppm in diet for 104 wk, study duration 104 wk (actual concentration about 18, 300, 900",inactive; negative
N#CCNC(=O)c1cnccc1C(F)(F)F,carcinogen call,"Species: Mouse, Strain/Sex: Crl:CD-1(ICR)BR VAF/Plus / Female (60/Group), Route: Oral, Dose: 0, 250, 750, 2250 ppm (0; 38; 112; 334 mg/kg/day) in diet for 18 mo, study duration 18 mo, Dose: 0, 250, 750, 2250 ppm (0; 38; 112; 334 mg/kg/day) in diet for 18 mo, study duration 18 mo, Tumor Site: Type of Lesion: Lung: alveolar/bronchiolar adenomas and carcinomas",active; positive
same,carcinogen call,"Species: Mouse, Strain/Sex: Crl:CD-1(ICR)BR VAF/Plus / Male (60/Group), Route: Oral, Dose: 0, 250, 750, 2250 ppm (0; 29; 88; 261 mg/kg/day) in diet for 18 mo, study duration 18 mo, Dose: 0, 250, 750, 2250 ppm (0; 29; 88; 261 mg/kg/day) in diet for 18 mo, study duration 18 mo, Tumor Site: Type of Lesion: Lung: alveolar/bronchiolar adenomas and carcinomas",active; positive
same,carcinogen call,"Species: Rat, Strain/Sex: Wistar (Jcl:Wistar)/Female (52/Group), Route: Oral, Dose: 0, 200, 1000, 5000 ppm (0; 8.92; 44.1; 219 mg/kg/day) in diet for 2 yr, study duration 2 yr, Dose: 0, 200, 1000, 5000 ppm (0; 8.92; 44.1; 219 mg/kg/day) in diet for 2 yr, study duration 2 yr",inactive; negative
same,carcinogen call,"Species: Rat, Strain/Sex: Wistar (Jcl:Wistar)/Male (52/Group), Route: Oral, Dose: 0, 50, 100, 200, 1000 ppm (0; 1.84; 3.68; 7.32; 36.5 mg/kg/day) in diet for 2 yr, study duration 2 yr, Dose: 0, 50, 100, 200, 1000 ppm (0; 1.84; 3.68; 7.32; 36.5 mg/kg/day) in diet for 2 yr, study duration 2 yr",inactive; negative
N#CS,carcinogen call,"Species: RAT, Strain/Sex: F344/FEMALE, Route: ORAL, Dose: 0, 0.32% IN DRINKING WATER 5 D/WK FOR 112 WK (STUDY DURATION: 130 WK)",inactive; negative
same,carcinogen call,"Species: RAT, Strain/Sex: F344/MALE, Route: ORAL, Dose: 0, 0.32% IN DRINKING WATER 5 D/WK FOR 112 WK (STUDY DURATION: 130 WK)",inactive; negative
